Test results: ChEMBL document CHEMBL4420060, “Combinatorial therapies for the treatment of neoplasias using the opioid growth factor receptor” (2013)
Activity calls are given as the source filed them. No cut-off for these calls is given here.

Legend:
UMSCC1 = test: Growth inhibition of human UM-SCC-1 cells assessed as decrease in cell number at 1 uM by MTS assay relative to control; type: functional, cell-based
MIA PaCa-2 = test: Growth inhibition of human MIAPaCa2 cells assessed as decrease in cell number at 1 uM incubated for 96 hrs by MTS assay relative to control; type: functional

Structure (SMILES) | growth inhibition (GI) (UMSCC1) | growth inhibition (GI) (MIA PaCa-2)
CC1(C)SSC(C)(C)[C@@H](NC(=O)[C@@H](N)Cc2ccc(O)cc2)C(=O)NCC(=O)N[C@@H](Cc2ccccc2)C(=O)N[C@H]1C(=O)O | inactive | inactive
NC(=O)[C@H](Cc1ccccc1)NC(=O)[C@H](Cc1c[nH]c2ccccc12)NC(=O)[C@@H]1CCCN1C(=O)[C@@H](N)Cc1ccc(O)cc1 | inactive | inactive
CC[C@H](C)C(NC(=O)[C@@H](NC(=O)[C@H](C)NC(=O)[C@H](CC(N)=O)NC(=O)[C@H](CCCCN)NC(=O)[C@H](Cc1ccccc1)NC(=O)[C@H](CC(C)C)NC(=O)[C@@H](NC(=O)[C@@H](NC(=O)[C@H](CC(C)C)NC(=O)[C@@H]1CCCN1C(=O)[C@@H](NC(=O)[C@H](CCC(N)=O)NC(=O)[C@H](CO)NC(=O)[C@H](CCCCN)NC(=O)[C@H](CCC(=O)O)NC(=O)[C@H](CO)NC(=O)[C@@H](NC(=O)[C@H](CCSC)NC(=O)[C@H](Cc1ccccc1)NC(=O)CNC(=O)CNC(=O)[C@@H](N)Cc1ccc(O)cc1)[C@@H](C)O)C(C)O)C(C)C)[C@@H](C)O)[C@@H](C)CC)C(=O)N[C@@H](CCCCN)C(=O)N[C@@H](CC(N)=O)C(=O)N[C@@H](C)C(=O)N[C@@H](Cc1ccc(O)cc1)C(=O)N[C@@H](CCCCN)C(=O)N[C@@H](CCCCCN)C(=O)NCC(=O)N[C@@H](CCC(=O)O)C(=O)O (some centres not stated) | – | inactive
C[C@@H](NC(=O)[C@@H](N)Cc1ccc(O)cc1)C(=O)NCC(=O)N(C)[C@@H](Cc1ccccc1)C(=O)NCCO | inactive | inactive
